Molecules are shown by their SMILES.

The results in this text go back to the METLIN SMRT retention time set (Domingo-Almenara et al. 2019).

This data set is described as follows: gradient 5% acetonitrile 3 min, to 50% in 2 min, to 85% in 15 min, held 3 min, 100 µL/min. Conditions: column: Zorbax Extend-C18 2.1 x 50 mm; eluents: water / acetonitrile, 0.1% formic acid. The method in brief: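 Standards, all pure, were combined into mixtures of ~100 molecules and run at 100 μL/min on a Zorbax Extend-C18 column (2.1 × 50 mm, 1.8 μm) with water and acetonitrile, each containing 0.1% formic acid. A coupled quadrupole time-of-flight mass spectrometer operated in positive and negative ionization mode. Retention time values come from computationally picked adduct peaks, each inspected manually.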
Compound `CC(C)(C)C1(C)NN=C2Sc3ccccc3N21` (centres undefined) had an RP-LC retention time of 1030 s.

Take `CSc1ccc(-c2nc3nc(C)cc(C)n3c2Nc2c(C)cccc2C)cc1`: the RP-LC retention time turned out to be 808 s.

Turning to `COc1ccc(-c2nc(Cn3ccn4nc(-c5ccc(F)cc5)cc4c3=O)c(C)o2)cc1`, the RP-LC retention time worked out at 670 s.

In the case of `CCc1noc(NC(C)=O)c1-c1ccc(C)c(S(=O)(=O)Nc2ccc(C)cc2Cl)c1`, the RP-LC retention time came to 914 s.

`Cc1cc(NC(=O)CSc2ccc(-n3cccn3)nn2)on1` came in with an RP-LC retention time of 666 s.

On to `Cc1ccc(-n2nc(C)c3sc(N4CCCC(C(=O)NC(C)(C)C)C4)nc32)cc1` (centres undefined), for which the RP-LC retention time was 1170 s.

The compound `CCCc1noc(-c2ccc(=O)n(CC(=O)Nc3cc(C)cc(C)c3)c2)n1` showed an RP-LC retention time of 902 s.

`CCOC(=O)c1scc(-c2ccc(C)cc2)c1S(=O)(=O)N1CCN(c2ccccn2)CC1` came in with an RP-LC retention time of 866 s.

Take `CCCN1C(=O)C(CC(=O)N2CCOCC2)Sc2ncccc21` (centres undefined): the RP-LC retention time was found to be 641 s.

For `O=C(NCCOc1ccc(F)cc1)C(=O)Nc1ccc(Cl)cn1`, the RP-LC retention time turned out to be 912 s.

`Cc1ccc(CNC(=O)C2(C)CCN(S(=O)(=O)c3ccc(C4CCCCC4)cc3)CC2)cc1` showed an RP-LC retention time of 1270 s.

`O=C(NCc1ccc(Cl)cc1)C(=O)NCC1CCCO1` (centres undefined) gave an RP-LC retention time of 762 s.

The compound `Cc1sc2ccn(Cc3ccc(F)cc3)c(=O)c2c1C(=O)NCCCN1CCOCC1` had an RP-LC retention time of 629 s.

For `CC(C)(C)c1ccc(NC(=O)N2CCN(CCNC(=O)c3cccs3)CC2)cc1`, the RP-LC retention time was 616 s.

With `CCCNC(=O)c1ccccc1OCc1nc(-c2ccccc2)no1`, the RP-LC retention time was found to be 954 s.

For `Fc1cccc(-c2nnc3sc(-c4ccc5ccccc5n4)nn23)c1`, the RP-LC retention time was 1180 s.

`NC(=O)C1CCN(S(=O)(=O)Cc2c(F)cccc2Cl)CC1` yielded an RP-LC retention time of 649 s.

In turn, `Cc1c(C(=O)N(C)C)cnn1-c1ccc(-c2nc(C3CC3)no2)cn1` showed an RP-LC retention time of 790 s.

In turn, `CCN1C(=O)c2cccnc2Sc2cc(CNC(=O)c3cccc(C#N)c3)ccc21` registered an RP-LC retention time of 756 s.

For the compound `CCOC(=O)CNC(=O)Nc1ccc2c(c1)oc(=O)n2CC`, the RP-LC retention time worked out at 659 s.

The compound `Cc1cnc(C2CC2)n1C1CCCN(C(=O)NC(C)C)C1` (centres undefined) registered an RP-LC retention time of 587 s.

On to `O=C(NCCCn1ncccc1=O)c1ccccc1C(F)(F)F`, for which the RP-LC retention time turned out to be 635 s.

The compound `COC(=O)c1cccc(C(=O)N2CCN(c3cc(C)ccc3C)CC2)n1` showed an RP-LC retention time of 959 s.

Compound `CN(CC1CCOCC1)S(=O)(=O)c1ccccc1F` came in with an RP-LC retention time of 804 s.

`Fc1ccc(N2CCN(Cc3nnc(-c4ccccc4)o3)CC2)cc1` returned an RP-LC retention time of 691 s.

`Cc1ccc(NC(=O)N2CCN(Cc3nc4ccccc4o3)CC2)cc1` yielded an RP-LC retention time of 689 s.

Regarding `COc1ccc(S(=O)(=O)N(C)C2CCc3nn(CC4CC4)c(=O)n3CC2)cc1OC` (centres undefined), the RP-LC retention time is 731 s.

`CC(=O)Nc1ccc(SCCCC(=O)Nc2cccc(C)n2)nn1` yielded an RP-LC retention time of 562 s.

Take `CC(=O)N1CCC(C2CCN(S(=O)(=O)c3ccc(Cl)s3)C2)CC1` (centres undefined): the RP-LC retention time turned out to be 761 s.

Compound `COc1ccc(C)cc1NC(=O)Cn1c(=O)cc(-c2nc(C3CC3)no2)c2ccccc21` registered an RP-LC retention time of 1050 s.

`COC(=O)c1ccc(NS(=O)(=O)c2ccc3c(c2)C(=O)N(C)c2ncccc2O3)cc1` came in with an RP-LC retention time of 881 s.

`Cc1cc(=O)n(CC(=O)Nc2ccc(F)cc2Cl)c(N2CCCCC2)n1` came in with an RP-LC retention time of 718 s.

For the compound `CCCN(CC1CCOC1)C(=O)Nc1ccccc1OCC` (centres undefined), the RP-LC retention time was determined as 903 s.

`COc1ccc(C2c3[nH]c4ccccc4c3CCN2C(=O)c2cccnc2)cc1` (centres undefined) registered an RP-LC retention time of 887 s.

`Cc1ccc2c(c1)C(C)(C)C(=O)N2CC(=O)NCc1cccnc1` yielded an RP-LC retention time of 612 s.

With `COc1ccccc1C(CNC(=O)c1cc(=O)c2cc(Br)ccc2o1)N(C)C` (centres undefined), the RP-LC retention time came to 651 s.

As for `COc1ccc(NC(=O)c2sc(-c3cn(C)c4ncccc34)nc2C)cc1`, the RP-LC retention time was determined as 867 s.

`COc1ccc(NC(=O)CSc2nnc3c4cc(-c5ccc(C)c(C)c5)nn4ccn23)cc1Cl` gave an RP-LC retention time of 997 s.

The compound `CS(=O)(=O)c1ccc(CC(=O)N2CCN(c3ccc(=O)n(-c4ccc(Cl)cc4)n3)CC2)cc1` came in with an RP-LC retention time of 739 s.

In the case of `O=C(CCc1nnc2ccc(NCc3ccc(F)cc3)nn12)N1CCN(c2ccccn2)CC1`, the RP-LC retention time was 612 s.

On to `Cc1nc(-c2csc(S(=O)(=O)N3CCC(C(=O)Nc4ccc(F)cc4C)CC3)c2)no1`, for which the RP-LC retention time was 886 s.

`O=C(CSc1nccc(-c2ccc3c(c2)OCO3)n1)N1CCOCC1`: the RP-LC retention time worked out at 690 s.

With `CCNc1nc(C)cc(N2CCN(S(=O)(=O)c3ccc(Cl)cc3)CC2)n1`, the RP-LC retention time was determined as 735 s.

`Cc1cc(NS(=O)(=O)c2cc3n(c2)CCCNC3=O)ccc1Cl`: the RP-LC retention time amounted to 711 s.

For `Fc1ccccc1-c1nnc(SCc2cccc(C(F)(F)F)c2)o1`, the RP-LC retention time was 1070 s.

`O=C(CSc1cc(N2CCCCC2)ncn1)Nc1cccc(Br)c1` gave an RP-LC retention time of 1050 s.

As to `COc1ccc(-c2cnn3c(C)cc(C)nc23)cc1S(=O)(=O)NCCN1CCCC(C)C1` (centres undefined), the RP-LC retention time worked out at 657 s.

Take `CCOC(=O)c1[nH]c(C)c(CCC(=O)N2CCCC(C(=O)NC(C)C)C2)c1C` (centres undefined): the RP-LC retention time was determined as 723 s.

For the compound `CCC1(C(=O)Nc2ccc(C)cc2)CCCCC(=O)N1` (centres undefined), the RP-LC retention time is 736 s.

Take `O=C(C1CCCCC1)N1CCC(F)(C(=O)NC2CC2)CC1`: the RP-LC retention time was 637 s.

The compound `Cc1ccc(-c2ccc(-n3nc(C)c(S(=O)(=O)NCc4ccccc4)c3C)nn2)cc1` gave an RP-LC retention time of 1090 s.

For `CCN1CCc2nc(-c3ccc(F)cc3)n(CC(=O)N3CCc4ccccc4C3)c(=O)c2C1`, the RP-LC retention time was found to be 635 s.

`CCC(=O)N1CCc2c(-c3ccccc3)cccc2[C@H]1C` registered an RP-LC retention time of 1030 s.

The compound `O=C(Nc1cccc(-c2ccc(N3CCCC3)nn2)c1)c1ccccc1F` gave an RP-LC retention time of 647 s.

On to `CCc1ccccc1S(=O)(=O)N1CCc2nc[nH]c2C1`, for which the RP-LC retention time was 612 s.

Compound `Cc1cc(N2CCN(C(=O)Nc3ccc4c(c3)OCO4)CC2)nc(N2CCCC2)n1` yielded an RP-LC retention time of 637 s.

As for `CCNc1cc(N2CCCC(CCC(=O)NCCN3CCCCC3)C2)ncn1` (centres undefined), the RP-LC retention time worked out at 551 s.

In turn, `COCCn1cc(CCNC(=O)Nc2cccc(Cl)c2)c2cccnc21` had an RP-LC retention time of 762 s.

Regarding `O=C(Cc1csc(Nc2cccc(C(F)(F)F)c2)n1)NCc1cccs1`, the RP-LC retention time worked out at 886 s.

`CCCC(NC(=O)Cc1ccc(OCC)c(OCC)c1)C(=O)Nc1nc2ccccc2[nH]1` (centres undefined) returned an RP-LC retention time of 1070 s.

`COc1ccc(CNC(=O)C2(C)CCN(C(=O)Nc3ccc(C)c(F)c3)CC2)cc1` registered an RP-LC retention time of 880 s.

The compound `COc1ccc(NC(=O)C2CCCN(C(=O)C3Sc4ccccc4NC3=O)C2)cc1` (centres undefined) displayed an RP-LC retention time of 750 s.

For the compound `CCN(CC)CCCC(C)Nc1cc(Cl)cc2nc3ccc(OC)cc3cc12` (centres undefined), the RP-LC retention time came out at 609 s.

Regarding `CN1C(=O)c2cc(C(=O)NC3CCCC3)nn2CC1(C)C(=O)NCc1ccc(F)cc1` (centres undefined), the RP-LC retention time is 719 s.

Consider `Cc1ccc(Cl)cc1NC(=O)CSc1nc(N2CCCCC2)nc2ccccc12`, for which the RP-LC retention time was 849 s.

The compound `CCOCCCNC(=O)c1cn(C)nc1S(=O)(=O)N1CCN(c2ccccc2OCC)CC1` yielded an RP-LC retention time of 923 s.

`Cc1ccc(F)c(NS(=O)(=O)c2cn(C(C)C)c3ncccc23)c1`: the RP-LC retention time turned out to be 912 s.

The compound `CCOC(=O)c1ccc(NC(=O)Cc2csc3nc(-c4ccc(OC)c(OC)c4)cn23)cc1` gave an RP-LC retention time of 756 s.

In turn, `CCC1CCCCN1C(=O)c1cnc2nc(C)ccc2c1Nc1cccc(C)c1C` (centres undefined) came in with an RP-LC retention time of 720 s.

`Cc1ccc(C)c(C(=O)N2CCCC(COc3ccc(C(=O)NC4CC4)cc3)C2)c1` (centres undefined) returned an RP-LC retention time of 849 s.

In turn, `COc1ccc(-c2cc3c(=O)n(CC(=O)N4CCN(c5ccccn5)CC4)ncn3n2)cc1` returned an RP-LC retention time of 641 s.

As for `O=C(c1cccc(F)c1)N1CCN(c2cnn3c(C4CC4)nnc3c2)CC1`, the RP-LC retention time was determined as 648 s.

In the case of `Cc1ccc(NC(=O)c2cc(C(C)C)n(C3CCS(=O)(=O)C3)n2)cc1C` (centres undefined), the RP-LC retention time was 949 s.

`CCOc1ccc2nc(Nc3ncc4c(n3)CC(c3cccc(Cl)c3)CC4=O)nc(C)c2c1` (centres undefined) gave an RP-LC retention time of 899 s.

On to `O=C(O)[C@H]1O[C@H](Oc2cc3oc(-c4ccccc4)cc(=O)c3c(O)c2O)[C@H](O)[C@@H](O)[C@@H]1O`, for which the RP-LC retention time was 658 s.

`O=C(c1ccccn1)N1CCN(C(=O)c2nnn3c2COC(c2ccccc2)C3)CC1` (centres undefined) gave an RP-LC retention time of 717 s.

`O=C(Cn1ccn(-c2cccc(Cl)c2)c(=O)c1=O)NCc1ccco1` showed an RP-LC retention time of 641 s.

`O=C(NCc1ccccc1)C1CC(=O)N(c2n[nH]c3cccc(F)c23)C1` (centres undefined) showed an RP-LC retention time of 684 s.

Consider `CCOC(=O)c1noc2nc(C)nc(Nc3cccc(C)c3)c12`, for which the RP-LC retention time was found to be 1170 s.
